According to ChEMBL document CHEMBL5241092, “The antibacterial activity of fluoroquinolone derivatives: An update (2018-2021)” (2021):
Converted amounts (≈) assume the structure as drawn.

Key:
Escherichia coli [1] = assay: Synergistic antibacterial activity against Escherichia coli assessed as reduction in mitomycin C MIC (reference value: […] to […] microg/ml); format: functional
Klebsiella pneumoniae [2] = assay: Synergistic antibacterial activity against Klebsiella pneumoniae assessed as reduction in mitomycin C MIC (reference value: […] to […] microg/ml); format: functional
Enterobacter cloacae = assay: Synergistic antibacterial activity against Enterobacter cloacae assessed as reduction in mitomycin C MIC (reference value: […] to […] microg/ml); format: functional
Pseudomonas aeruginosa [3] = assay: Antibacterial activity against Pseudomonas aeruginosa PAO1; format: functional
Pseudomonas aeruginosa [4] = assay: Synergistic antibacterial activity against Pseudomonas aeruginosa assessed as reduction in mitomycin C MIC (reference value: […] to […] microg/ml); format: functional
Pseudomonas aeruginosa [5] = assay: Antibacterial activity against Pseudomonas aeruginosa PAO200; format: functional
Pseudomonas aeruginosa [6] = assay: Antibacterial activity against Pseudomonas aeruginosa PAO750; format: functional
Streptococcus pneumoniae [7] = assay: Potency index, ratio of gatifloxacin MIC to test compound MIC for antibacterial activity against methicillin susceptible Streptococcus pneumoniae; format: functional
Staphylococcus aureus [8] = assay: Antibacterial activity against methicillin resistant Staphylococcus aureus 2; format: functional
Streptococcus pneumoniae [9] = assay: Potency index, ratio of vancomycin MIC to test compound MIC for antibacterial activity against methicillin susceptible Streptococcus pneumoniae; format: functional
Staphylococcus aureus [10] = assay: Antibacterial activity against Staphylococcus aureus; format: functional
Staphylococcus aureus [11] = assay: Antibacterial activity against methicillin susceptible Staphylococcus aureus; format: functional
Staphylococcus aureus [12] = assay: Potency index, ratio of gatifloxacin MIC to test compound MIC for antibacterial activity against Staphylococcus aureus; format: functional
Streptococcus pneumoniae [13] = assay: Antibacterial activity against Streptococcus pneumoniae; format: functional
Staphylococcus aureus [14] = assay: Potency index, ratio of gatifloxacin MIC to test compound MIC for antibacterial activity against methicillin susceptible Staphylococcus aureus; format: functional
Staphylococcus aureus [15] = assay: Antibacterial activity against methicillin resistant Staphylococcus aureus 3; format: functional
Staphylococcus aureus [16] = assay: Potency index, ratio of vancomycin MIC to test compound MIC for antibacterial activity against Staphylococcus aureus; format: functional
Staphylococcus aureus [17] = assay: Potency index, ratio of vancomycin MIC to test compound MIC for antibacterial activity against methicillin susceptible Staphylococcus aureus; format: functional
Staphylococcus aureus [18] = assay: Antibacterial activity against methicillin resistant Staphylococcus aureus 1; format: functional
Staphylococcus aureus [19] = assay: Potency index, ratio of vancomycin MIC to test compound MIC for antibacterial activity against methicillin resistant Staphylococcus aureus 1; format: functional
Staphylococcus aureus [20] = assay: Potency index, ratio of vancomycin MIC to test compound MIC for antibacterial activity against methicillin resistant Staphylococcus aureus 2; format: functional
Staphylococcus aureus [21] = assay: Potency index, ratio of vancomycin MIC to test compound MIC for antibacterial activity against methicillin resistant Staphylococcus aureus 3; format: functional
Pseudomonas aeruginosa [22] = assay: Antibacterial activity against quinolone susceptible Pseudomonas aeruginosa; format: functional
Escherichia coli [23] = assay: Antibacterial activity against quinolone susceptible Escherichia coli; format: functional
Pseudomonas aeruginosa [24] = assay: Antibacterial activity against quinolone resistant Pseudomonas aeruginosa; format: functional
Escherichia coli [25] = assay: Potency index, ratio of levofloxacin MIC to test compound MIC for quinolone resistant Escherichia coli; format: functional
Escherichia coli [26] = assay: Antibacterial activity against quinolone resistant Escherichia coli; format: functional
Acinetobacter baumannii [27] = assay: Potency index, ratio of levofloxacin MIC to test compound MIC for quinolone resistant Acinetobacter baumannii; format: functional
Acinetobacter baumannii [28] = assay: Antibacterial activity against quinolone resistant Acinetobacter baumannii; format: functional
Pseudomonas aeruginosa [29] = assay: Potency index, ratio of levofloxacin MIC to test compound MIC for quinolone resistant Pseudomonas aeruginosa; format: functional
Escherichia coli [30] = assay: Antibacterial activity against Escherichia coli UTI89; format: functional
Escherichia coli [31] = assay: Antibacterial activity against Escherichia coli CFT073; format: functional
Staphylococcus aureus [32] = assay: Potency index, ratio of ciprofloxacin MIC to test compound MIC for antibacterial activity against Staphylococcus aureus; format: functional
Staphylococcus aureus [33] = assay: Antibacterial activity against methicillin resistant Staphylococcus aureus; format: functional
Staphylococcus aureus [34] = assay: Potency index, ratio of ciprofloxacin MIC to test compound MIC for antibacterial activity against methicillin resistant Staphylococcus aureus; format: functional
Klebsiella pneumoniae [35] = assay: Antibacterial activity against Klebsiella pneumoniae; format: functional
Chlamydia trachomatis = assay: Antibacterial activity against Chlamydia trachomatis; format: functional
Pseudomonas aeruginosa [36] = assay: Antibacterial activity against Pseudomonas aeruginosa; format: functional
Enterobacter = assay: Antibacterial activity against Enterobacter; format: functional
Enterococcus faecium = assay: Antibacterial activity against Enterococcus faecium; format: functional
[37] = tested on: Staphylococcus epidermidis; assay: Antibacterial activity against Staphylococcus epidermidis; format: functional
Escherichia coli [38] = assay: Antibacterial activity against Escherichia coli; format: functional
Staphylococcus aureus [39] = assay: Potency index, ratio of ciprofloxacin MIC to test compound MIC for antibacterial activity against methicillin sensitive Staphylococcus aureus; format: functional
[40] = tested on: Staphylococcus epidermidis; assay: Potency index, ratio of ciprofloxacin MIC to test compound MIC for antibacterial activity against methicillin sensitive Staphylococcus epidermidis; format: functional
Priestia megaterium = assay: Antibacterial activity against Bacillus megaterium; format: functional
Micrococcus luteus = assay: Antibacterial activity against Micrococcus luteus; format: functional
Shigella flexneri = assay: Antibacterial activity against Shigella flexneri; format: functional
[41] = Antibacterial activity against Salmonella typhi; format: functional, Salmonella enterica subsp. enterica serovar Typhimurium; details: Salmonella enterica
Staphylococcus aureus [42] = assay: Antibacterial activity against ciprofloxacin resistant Staphylococcus aureus; format: functional
Bacillus subtilis = assay: Antibacterial activity against Bacillus subtilis; format: functional
Escherichia coli [43] = assay: Antibacterial activity against ciprofloxacin resistant Escherichia coli; format: functional
Vibrio cholerae = assay: Antibacterial activity against Vibrio cholerae; format: functional
Citrobacter freundii = assay: Antibacterial activity against Citrobacter freundii; format: functional

NC[C@H]1O[C@H](O[C@H]2[C@H](OCCCCN3CCN(c4cc5c(cc4F)c(=O)c(C(=O)O)cn5C4CC4)CC3)[C@@H](O[C@H]3O[C@H](CO)[C@@H](O)[C@H](N)[C@H]3O)[C@H](N)C[C@@H]2N)[C@H](N)C[C@@H]1O
MIC (Escherichia coli [1]): 0.31 µg/mL | MIC (Klebsiella pneumoniae [2]): 0.31 µg/mL | MIC (Enterobacter cloacae): 0.31 µg/mL | MIC (Pseudomonas aeruginosa [3]): 32 µg/mL (≈ 37.5 µM) | MIC (Pseudomonas aeruginosa [4]): 0.31 µg/mL | MIC (Pseudomonas aeruginosa [5]): 4 µg/mL (≈ 4.69 µM) | MIC (Pseudomonas aeruginosa [6]): 2 µg/mL (≈ 2.34 µM)

CO/N=C1/C(=O)N(Cc2cn(CC(=O)N3CCN(c4c(F)cc5c(=O)c(C(=O)O)cn(C6CC6)c5c4OC)CC3C)nn2)c2ccc(F)cc21 (stereo not given)
Ratio (Streptococcus pneumoniae [7]): 2 | MIC (Staphylococcus aureus [8]): ≤ 0.03 µg/mL | Ratio (Streptococcus pneumoniae [9]): 2 | MIC (Staphylococcus aureus [10]): 0.06 µg/mL (≈ 0.0869 µM) | MIC (Staphylococcus aureus [11]): 0.06 µg/mL (≈ 0.0869 µM) | Ratio (Staphylococcus aureus [12]): 2 | MIC (Streptococcus pneumoniae [13]): 0.06 µg/mL (≈ 0.0869 µM) | Ratio (Staphylococcus aureus [14]): 2 | MIC (Staphylococcus aureus [15]): ≤ 0.03 µg/mL | Ratio (Staphylococcus aureus [16]): 2 | Ratio (Staphylococcus aureus [17]): 2 | MIC (Staphylococcus aureus [18]): ≤ 0.03 µg/mL

CCn1cc(C(=O)O)c(=O)c2cc(F)c(N3CCN(Cc4nnc(-c5cccc(OC)c5)o4)CC3)cc21
MIC (Staphylococcus aureus [8]): 0.5 µg/mL (≈ 0.985 µM) | MIC (Staphylococcus aureus [10]): 2 µg/mL (≈ 3.94 µM) | Ratio (Staphylococcus aureus [19]): 2 | Ratio (Staphylococcus aureus [20]): 2 | MIC (Staphylococcus aureus [15]): 1 µg/mL (≈ 1.97 µM) | MIC (Staphylococcus aureus [18]): 0.5 µg/mL (≈ 0.985 µM) | Ratio (Staphylococcus aureus [21]): 2

CNC1CN(c2c(F)c(C)c3c(=O)c(C(=O)O)cn(-c4cc(N)c(F)cc4CO)c3c2Cl)C1
MIC (Pseudomonas aeruginosa [22]): 0.008 µg/mL (≈ 0.0167 µM) | MIC (Escherichia coli [23]): 0.008 µg/mL (≈ 0.0167 µM) | MIC (Pseudomonas aeruginosa [24]): 0.12 µg/mL (≈ 0.251 µM) | Ratio (Escherichia coli [25]): 2 | MIC (Escherichia coli [26]): 0.12 µg/mL (≈ 0.251 µM) | Ratio (Acinetobacter baumannii [27]): 2 | MIC (Acinetobacter baumannii [28]): 0.12 µg/mL (≈ 0.251 µM) | Ratio (Pseudomonas aeruginosa [29]): 2

CC(=O)c1cn(C2CC2)c2cc(N3CCN(C(=O)CCCCCNC(=O)c4cc(O)c(O)c(C(=O)N[C@H]5COC(=O)[C@@H](NC(=O)c6cccc(O)c6O)COC(=O)[C@@H](NC(=O)c6cccc(O)c6O)COC5=O)c4)CC3)c(F)cc2c1=O
MIC (Escherichia coli [30]): 0.1 µg/mL (≈ 0.0879 µM) | MIC (Escherichia coli [31]): 0.1 µg/mL (≈ 0.0879 µM)

O=C(O)c1cn(C2CC2)c2cc(N3CCN(Cc4nc5ccccc5c(=O)[nH]4)CC3)c(F)cc2c1=O
Ratio (Staphylococcus aureus [32]): 30 | MIC (Staphylococcus aureus [10]): 0.016 µg/mL (≈ 0.0327 µM) | MIC (Staphylococcus aureus [33]): 0.016 µg/mL (≈ 0.0327 µM) | Ratio (Staphylococcus aureus [34]): 60

COc1c(N2CCN(C(=O)c3ccc4cccc(O)c4n3)CC2)c(F)cc2c(=O)c(C(=O)O)cn(C3CC3)c12
MIC (Staphylococcus aureus [10]): ≤ 0.06 µg/mL | MIC (Klebsiella pneumoniae [35]): ≤ 0.06 µg/mL | MBC (Chlamydia trachomatis): 2 µg/mL (≈ 3.76 µM) | MIC (Chlamydia trachomatis): ≤ 0.06 µg/mL | MIC (Pseudomonas aeruginosa [36]): ≤ 0.06 µg/mL | MIC (Enterobacter): ≤ 0.06 µg/mL | MIC (Acinetobacter baumannii [28]): ≤ 0.06 µg/mL | MIC (Enterococcus faecium): ≤ 0.06 µg/mL

O=C(CSC(=S)N1CCN(c2cc3c(cc2F)c(=O)c(C(=O)O)cn3C2CC2)CC1)Nc1ccccc1Cl
Ratio (Staphylococcus aureus [32]): 2 | MIC (Staphylococcus aureus [10]): 0.097 µg/mL (≈ 0.169 µM) | MIC [37]: 0.097 µg/mL (≈ 0.169 µM) | MIC (Escherichia coli [38]): 0.024 µg/mL (≈ 0.0417 µM) | Ratio (Staphylococcus aureus [39]): 2 | MIC (Staphylococcus aureus [33]): 0.097 µg/mL (≈ 0.169 µM) | MIC (Staphylococcus aureus [11]): 0.097 µg/mL (≈ 0.169 µM) | MIC (Pseudomonas aeruginosa [36]): 0.024 µg/mL (≈ 0.0417 µM) | Ratio [40]: 2

O=C(O)c1cn(C2CC2)c2cc(N3CCNCC3)c(F)cc2c1=O [CIPROFLOXACIN]
MIC (Priestia megaterium): 7.8 µg/mL (≈ 23.5 µM) | MIC (Micrococcus luteus): 7.8 µg/mL (≈ 23.5 µM) | MIC (Staphylococcus aureus [10]): 0.015 µg/mL (≈ 0.0453 µM) | MIC (Shigella flexneri): 0.15 µg/mL (≈ 0.453 µM) | MIC [37]: 0.015 µg/mL (≈ 0.0453 µM) | MIC (Pseudomonas aeruginosa [22]): 0.008 µg/mL (≈ 0.0241 µM) | MIC [41]: 0.15 µg/mL (≈ 0.453 µM) | MIC (Staphylococcus aureus [42]): 20.5 µg/mL (≈ 61.9 µM) | MIC (Klebsiella pneumoniae [35]): 0.15 µg/mL (≈ 0.453 µM) | MIC (Staphylococcus aureus [11]): 0.195 µg/mL (≈ 0.589 µM) | MBC (Chlamydia trachomatis): > 50 µg/mL | MIC (Pseudomonas aeruginosa [36]): 0.012 µg/mL (≈ 0.0362 µM) | MIC (Bacillus subtilis): 0.015 µg/mL (≈ 0.0453 µM) | MIC (Pseudomonas aeruginosa [24]): 16 µg/mL (≈ 48.3 µM) | MIC (Escherichia coli [43]): 20.5 µg/mL (≈ 61.9 µM) | MIC (Vibrio cholerae): 0.15 µg/mL (≈ 0.453 µM) | MIC (Acinetobacter baumannii [28]): 16 µg/mL (≈ 48.3 µM) | MIC (Citrobacter freundii): 0.15 µg/mL (≈ 0.453 µM)
